Legend:
Format in all cases: cell-based, human
LNCaP cells = experiment: Apoptosis of LNCaP cells (Yo-Pro-1/7-AAD flow cytometry); conditions: 48 hr; for induction of apoptosis in LNCaP cells: compound alone
Description: FIGS. 12A-D show the effect of different compounds on the proliferation and apoptosis of LNCaP cells. […] Time-elapsed images were taken with an Incucyte imaging system every hour for 4 days. The proliferation of LNCaP cells is presented as increase in confluency (read by the instrument) at 80 hrs. Data represent the means+SEM of three independent experiments. […] Apoptosis was measured 2 days after treatment by flow cytometry using 7-AAD and Yo-Pro-1 as described in Materials and Methods. Data represent the means+SEM of three independent experiments.
(§1) LNCaP cells treated for 48 hours with the different drugs or with DMSO as control were washed and re-suspended in phosphate buffered saline. Yo-Pro-1 (Invitrogen, Carlsbad, Calif.) was added to a final concentration of 1 μM and the cells were incubated for 20 min at 4° C. in the dark. 7-Aminoactinomycin D (7-AAD) (Invitrogen, Carlsbad, Calif.) was then added at a 5 μg/mL final concentration 10 minutes before analysis by flow cytometry using the FACSCalibur system (Becton Dickinson, Mountain View, Calif.). Data were analyzed with FlowJo 7 (Tree Star Inc., Ashland, Oreg.). The Yo-Pro-1 positive cells were considered apoptotic and were expressed as % of total cells. Western blot analysis of treated LNCaP cell lysates was performed as described previously using rabbit anti-cFos, rabbit anti-PKC delta, rabbit anti-phospho-tyrosine 311 of PKC delta or rabbit anti-β-actin antibodies.

cFos = experiment: Induction of cFos in LNCaP cells (western blot); conditions: LNCaP cells treated 2, 5 or 8 hrs
Description: (§2) FIGS. 14A-C show the induction of cFos and phosphorylation of PKC at Y311 in LNCaP cells. […] The proteins from the lysates were separated by 10% SDS-PAGE, electroblotted to nitrocellulose membranes and probed with anti-cFos primary and anti-rabbit secondary antibodies, followed by ECL visualization. Data are representative of four independent experiments. […] The cFos signal was normalized to the β-actin signal to correct for loading and the response induced by 100 nM PMA at 2 hrs was taken as 100%. Data represent the means+SEM of four independent experiments. […] Data represent the means+SEM of three independent experiments.
as §1, with “Western blot analysis of treated LNCaP cell lysates was performed as described previously using rabbit anti-cFos, rabbit anti-PKC delta, rabbit anti-phospho-tyrosine 311 of PKC delta or rabbit anti-β-actin antibodies.” left out

U937 cells = experiment: Attachment of U937 cells; conditions: for attachment of U937 cells: compound alone, 72 hours
Description: U937 cells (Sundstrom, C.; Nilsson, K.: Establishment and characterization of a human histiocytic lymphoma cell line (U-937). Int. J. Cancer 1976, 17: 565-577.), purchased from ATCC (Manassas, Va.) and cultured in RPMI-1640 medium supplemented with 10% FBS (ATCC, Manassas, Va.), were plated in 35 mm dishes at a density of 2×10^5 living cells/ml and treated with different concentrations of the drugs or DMSO. After 72 hours, the number of cells in the supernatant (non-attached cells) and the number of attached cells (after trypsinization) were counted using a Beckman particle counter (Beckman Coulter Inc., Fullerton, Calif.). The number of attached cells is expressed as percent of total cells (FIGS. 8-10).
(§3) U937 cells were treated with PMA (0.1-100 nM), bryostatin 1 (1-1000 nM), the indicated compound (1-1000 nM), 10 nM PMA with different concentrations of bryostatin 1 (1-1000 nM) or 10 nM PMA with different concentrations of indicated compound (1-1000 nM) for 72 hours. The number of attached cells and total cells were counted and the attached cells were graphed as percent of total cells. The bars and error bars represent the average and the standard error of the mean of five independent experiment (FIGS. 8-10).
(§4) U937 cells (Sundstrom and Nilsson, 1976), purchased from ATCC (Manassas, Va.) and cultured in RPMI-1640 medium supplemented with 10% FBS (ATCC, Manassas, Va.), were plated in 35 mm dishes at a density of 1×10^5 living cells/ml and treated with different concentrations of the drugs or DMSO. After 72 hours, the number of cells in the supernatant (non-attached cells) and the number of attached cells (after trypsinization) were counted using a particle counter. The number of attached cells is expressed as percent of total cells.
U937 cells were treated with PMA (0.01-100 nM), bryostatin1 (0.1-1000 nM), analogue 12 (MERLE 28) (0.1-1000 nM), 10 nM PMA with different concentrations of bryostatin 1 (0.1-1000 nM) or 10 nM PMA with different concentrations of analogue 12 (0.1-1000 nM). The number of attached cells and total cells were counted and the attached cells were graphed as percent of total cells. The bars and error bars represent the average and the standard error of the mean of at least three independent experiments.
as §4, with “U-937” for “U937”
as §3, with “U-937” for “U937”, “at least three” for “five”, “experiments.” for “experiment (FIGS. 8-10).”

PKC delta = experiment: Phosphorylation of PKC delta at Y311 in LNCaP cells (western blot)
Description: as §2
as §1, with “Western blot analysis of treated LNCaP cell lysates was performed as described previously using rabbit anti-cFos, rabbit anti-PKC delta, rabbit anti-phospho-tyrosine 311 of PKC delta or rabbit anti-β-actin antibodies.” left out

| SMILES | induction of apoptosis in LNCaP cells (LNCaP cells) | time course of cFos induction (cFos) | attachment of U937 cells (U937 cells) | phosphorylation of PKC delta at Y311 (PKC delta) | block of induction of apoptosis by PMA in LNCaP cells (LNCaP cells; 300 nM PMA in combination with 1000 nM compound) | block of PMA-induced attachment of U937 cells (U937 cells; 10 nM PMA with different concentrations of compound) | attachment of U937 cells (U937 cells; listed as Bryostatin 1) |
| --- | --- | --- | --- | --- | --- | --- | --- |
| CCCCCCCCCCCCCC(=O)O[C@@H]1[C@@H](C)[C@@]2(O)[C@@H](C=C(CO)C[C@]3(O)C(=O)C(C)=C[C@@H]23)[C@@H]2C(C)(C)[C@]12OC(C)=O [PMA] | induced apoptosis | persisted for 5 hrs, with weak induction still evident at 8 hrs | induces attachment | rapid phosphorylation | – | – | – |
| CCC/C=C/C=C/C(=O)O[C@H]1/C(=C/C(=O)OC)C[C@H]2C[C@H]([C@@H](C)O)OC(=O)C[C@H](O)C[C@@H]3C[C@H](OC(C)=O)C(C)(C)[C@](O)(C[C@@H]4C/C(=C/C(=O)OC)C[C@H](/C=C/C(C)(C)[C@]1(O)O2)O4)O3 [bryostatin 1] | little effect | largely lost by 5 hrs | much diminished effect | only very weak phosphorylation | largely blocked the induction of apoptosis by PMA | blocks the effect of the phorbol ester in a dose-dependent manner | much less effect on either response |
